This is an account of results in US10358435B2, “Triazolyl pyrimidinone compounds as PDE2 inhibitors” (Merck Sharp & Dohme Corp., priority 2015, dated 2019).

A value given as a limit tells only on which side of the number the result lay.

The target of the test is human PDE2A1 (Homo sapiens (Human), UniProt O00408). As to the kind of experiment: IMAP fluorescence polarization assay, human PDE2A1 (PDE selectivity panel). The test is classed as biochemical. The conditions noted are these: for Ki: FAM cAMP 50 nM with 1000 nM cGMP. The protocol: The activity of the compounds in accordance with the present invention as PDE2 inhibitors may be readily determined using a fluorescence polarization (FP) methodology (Huang, W., et al., J. Biomol Screen, 2002, 7: 215).
Dose-inhibition profiles for each compound were characterized by fitting the mP data to a four-parameter equation given below.
Selectivity for PDE2, as compared to other PDE families, was assessed using the IMAP® technology. Human PDE10A2 enzyme was prepared from cytosolic fractions of transiently transfected HEK cells. All other PDE's were GST Tag human enzyme expressed in insect cells and were obtained from BPS Bioscience (San Diego, Calif.): PDE1A (Cat#60010), human PDE2A1 (Cat#60020), PDE3A (Cat#60030), PDE4A1A (Cat#60040), PDE5A1 (Cat#60050), PDE6C (Cat#60060), PDE7A (Cat#60070), PDE8A1 (Cat#60080), PDE9A2 (Cat#60090), PDE11A4 (Cat#60110).
Assays for PDE 1 through 11 were performed in parallel at room temperature in 384-well microtiter plates with an incubation volume of 20.2 μL. Solutions of test compounds were prepared in DMSO and serially diluted with DMSO to yield 30 μL of each of ten solutions differing by 3-fold in concentration, at 32 serial dilutions per plate. […] A Labcyte POD 810 (Labcyte, Sunnyvale, Calif.) was used to dispense 200 nL from each well of the titration plate to make eleven copies of the assay plate for each titration, one copy for each PDE enzyme. A solution of each enzyme (dilution from aliquots, sufficient to produce 20% substrate conversion) and a separate solution of FAM-labeled cAMP or FAM-labeled cGMP from Molecular Devices (Sunnyvale, Calif., product # R7506 or cGMP#R7508), at a final concentration of 50 nM were made in the assay buffer (10 mM Tris HCl, pH 7.2, 10 mM MgCl2, 0.05% NaN3 0.01% Tween-20, and 1 mM DTT). Note that the substrate for PDE2 is 50 nM FAM cAMP containing 1000 nM of cGMP. The enzyme and the substrate were then added to the assay plates in two consecutive additions of 10 μL and then shaken to mix. The reaction was allowed to proceed at room temperature for 60 minutes. A binding solution was then made from the kit components, comprised of 80% Solution A, 20% Solution B and binding reagent at a volume of 1/600 the total binding solution. The enzymatic reaction was stopped by addition of 60 μL of the binding solution to each well of the assay plate. The plates were sealed and shaken for 10 seconds. The plates were incubated at room temperature for one hour, then the parallel and perpendicular fluorescence was measured using a Tecan Genios Pro plate reader (Tecan, Switzerland). The apparent inhibition constants for the compounds against all 11 PDE's was determined from the parallel and perpendicular fluorescent readings as described for PDE10 FP assay using the following apparent KM values for each enzyme and substrate combination: PDE1A (FAM cGMP) 70 nM, human PDE2A1 (FAM cAMP) 10,000 nM, PDE3A (FAM cAMP) 50 nM, PDE4A1A (FAM cAMP) 1500 nM, PDE5A1 (FAM cGMP) 400 nM, PDE6C (FAM cGMP) 700 nM, PDE7A (FAM cAMP) 150 nM, PDE8A1 (FAM cAMP) 50 nM, PDE9A2 (FAM cGMP) 60 nM, PDE10A2 (FAM cAMP) 150 nM, PDE11A4 (FAM cAMP) 1000 nM. The intrinsic PDE2 inhibitory activity of a compound which may be used in accordance with the present invention may be determined by these assays.
(In general: In fluorescence polarisation assays a small probe gives low polarisation when free and higher when bound to something large.)

Sequence of human PDE2A1 (O00408 other isoform, or with tags, fused parts or gaps): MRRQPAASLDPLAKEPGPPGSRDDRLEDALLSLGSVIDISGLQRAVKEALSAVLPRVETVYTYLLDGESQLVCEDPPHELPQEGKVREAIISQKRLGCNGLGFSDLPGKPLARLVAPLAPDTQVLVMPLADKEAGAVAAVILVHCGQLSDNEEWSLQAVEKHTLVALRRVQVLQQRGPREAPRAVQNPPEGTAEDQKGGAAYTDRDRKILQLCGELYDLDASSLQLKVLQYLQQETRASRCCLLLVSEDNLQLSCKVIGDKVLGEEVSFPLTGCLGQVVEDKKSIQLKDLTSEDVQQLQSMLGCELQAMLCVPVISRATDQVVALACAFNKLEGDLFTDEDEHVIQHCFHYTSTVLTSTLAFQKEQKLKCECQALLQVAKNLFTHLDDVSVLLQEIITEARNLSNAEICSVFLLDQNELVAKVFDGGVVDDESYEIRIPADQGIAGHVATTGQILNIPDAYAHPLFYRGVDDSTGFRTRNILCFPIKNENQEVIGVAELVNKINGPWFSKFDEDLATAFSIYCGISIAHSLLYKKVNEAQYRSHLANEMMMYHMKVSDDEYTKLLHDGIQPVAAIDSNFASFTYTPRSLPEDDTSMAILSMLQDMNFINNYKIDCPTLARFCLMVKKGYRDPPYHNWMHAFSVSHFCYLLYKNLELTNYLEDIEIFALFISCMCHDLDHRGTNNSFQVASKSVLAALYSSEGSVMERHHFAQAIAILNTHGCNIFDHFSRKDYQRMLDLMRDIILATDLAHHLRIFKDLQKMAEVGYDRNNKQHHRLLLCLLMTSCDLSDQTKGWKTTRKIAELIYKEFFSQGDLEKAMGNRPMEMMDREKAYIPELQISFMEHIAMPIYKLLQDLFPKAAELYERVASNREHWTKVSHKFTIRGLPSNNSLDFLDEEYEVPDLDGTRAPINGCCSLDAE

In general, Ki refers to the equilibrium dissociation constant of an inhibitor or competing ligand from its target. Consider `Cc1nc(-c2nnc3n2CCCC3(C)c2ccc(C(F)(F)F)cc2)cc(=O)[nH]1` (single isomer, unassigned) [Example 73, (S)- or (R)-2-methyl-6-(8-methyl-8-(4-(trifluoromethyl)phenyl)-5,6,7,8-tetrahydro-[1,2,4]triazolo[4,3-a]pyridin-3-yl)pyrimidin-4(3H)-one], for which the Ki stood at 26.9 nM.
As a reminder, the inhibition is the percentage by which the read-out fell short of the control. For `Cc1nc(-c2nnc3n2CCC[C@H]3c2ccc(C(F)(F)F)cc2)cc(=O)[nH]1` (mixture of isomers) [Example 71, (R)- and (S)-2-Methyl-6-(8-(4-(trifluoromethyl)phenyl)-5,6,7,8-tetrahydro-[1,2,4]triazolo[4,3-a]pyridin-3-yl)pyrimidin-4(3H)-one], the inhibition at 3 µM is 27%.
In the case of `Cc1nc(-c2nnn3c2CCC[C@]3(C)c2ccc(C(F)(F)F)cc2C)cc(=O)[nH]1` (single isomer, unassigned) [Example 78], the Ki was 804 nM.
`Cc1nc(-c2cnn([C@H](C)c3ccc(C(F)(F)F)cc3Cl)n2)cc(=O)[nH]1` (single isomer, unassigned) [Example 1]: the Ki is 36.3 nM.
As to `Cc1nc(-c2nnn([C@H](C)c3ccc(C(F)(F)F)cc3Cl)c2C)cc(=O)[nH]1` (mixture of isomers) [Example 44, (R)- and (S)-6-(1-(1-(2-Chloro-4-(trifluoromethyl)phenyl)-ethyl)-5-methyl-1H-1,2,3-triazol-4-yl)-2-methylpyrimidin-4(3H)-one], the inhibition at 3 µM was 44%.
For the compound `Cc1nc(-c2nnc3n2CCC[C@H]3c2ccc(C(F)(F)F)cc2)cc(=O)[nH]1` (single isomer, unassigned) [Example 70], the Ki was found to be 54.3 nM.
As to `Cc1nc(-c2cn(C(C)(C)c3ccc(C(F)(F)F)cc3C)nn2)cc(=O)[nH]1` [Example 31, 2-methyl-6-(1-(2-(2-methyl-4-(trifluoromethyl)phenyl)propan-2-yl)-1H-1,2,3-triazol-4-yl) pyrimidin-4(3H)-one], the inhibition constant (Ki) came out at 5.4 nM.
Still for that read-out and setting: in the case of `CCC(c1ccc(C(F)(F)F)cc1F)n1cc(-c2cc(=O)[nH]c(C)n2)nn1` (single isomer, unassigned) [Example 37, (R)- or (S)-6-(1-(1-(2-fluoro-4-(trifluoromethyl)phenyl)propyl-1H-1,2,3-triazol-4-yl)-2-methylpyrimidin-4(3H)-one] it was 11 nM; in that of `Cc1nc(-c2nnc(C(C)c3ccc(C(F)(F)F)cc3F)[nH]2)cc(=O)[nH]1` (single isomer, unassigned) [Example 61, (R)- or (S)-6-(5-(1-(2-fluoro-4-(trifluoromethyl)-phenyl)ethyl)-4H-1,2,4-triazol-3-yl)-2-methylpyrimidin-4(3H)-one], 52.7 nM.
Still for that read-out and setting: in the case of `Cc1nc(-c2ncn(C(C)c3ccc(C(F)(F)F)cc3F)n2)cc(=O)[nH]1` (stereo not shown) [Example 86, 6-(1-(1-(2-Fluoro-4-(trifluoromethyl)phenyl)ethyl)-1H-1,2,4-triazol-3-yl)-2-methylpyrimidin-4(3H)-one] it was 167 nM; in that of `Cc1nc(-c2cn([C@H](C)c3ccc(C(F)(F)F)cc3C)nn2)cc(=O)[nH]1` (single isomer, unassigned) [Example 10], 132 nM.
For `Cc1nc(-c2nnc(C(C)c3ccc(C(F)(F)F)cc3Cl)n2C)cc(=O)[nH]1` (single isomer, unassigned) [Example 67, (R)- or (S)-6-(5-(1-(2-chloro-4-(trifluoromethyl)-phenyl)ethyl)-4-methyl-4H-1,2,4-triazol-3-yl)-2-methylpyrimidin-4(3H)-one], the inhibition at 3 µM stood at 17%.
In the case of `Cc1nc(-c2cn(C(c3ccc(C(F)(F)F)cc3F)C3CC3)nn2)cc(=O)[nH]1` (single isomer, unassigned) [Example 42], the Ki amounted to 9.7 nM.
Same read-out and setting: in the case of `Cc1nc(-c2nnn3c2CCC[C@H]3c2ccc(C(F)(F)F)cc2)cc(=O)[nH]1` (single isomer, unassigned) [Example 48] it was 42.4 nM; in that of `Cc1nc(-c2cn(C(C)c3cc(F)c(C(F)(F)F)cc3F)nn2)cc(=O)[nH]1` (single isomer, unassigned) [Example 23, (R)- or (S)-6-(1-(1-(2,5-difluoro-4-(triufluoromethyl)phenyl)ethyl)-1H-1,2,3-triazol-4-yl)-2-methylpyrimidin-4(3H)-one], 203 nM; in that of `Cc1nc(-c2cn(C(C)c3ccc(C4CC4)cc3Cl)nn2)cc(=O)[nH]1` (single isomer, unassigned) [Example 26, (S)- or (R)-6-(1-(1-(2-chloro-4-cyclopropylphenyl)ethyl)-1H-1,2,3-triazol-4-yl)-2-methylpyrimidin-4(3H)-one], 3.2 nM.
Still for that read-out and setting: in the case of `Cc1nc(-c2cnn(C(C)c3ccc(C(F)(F)F)cc3C)n2)cc(=O)[nH]1` (single isomer, unassigned) [Example 5, (R)- or (S)-2-methyl-6-(2-(1-(2-methyl-4-(trifluoromethyl)phenyl)ethyl)-2H-1,2,3-triazol-4-yl)pyrimidin-4(3H)-one] it was 52.2 nM; in that of `Cc1nc(-c2nnn3c2CCC3(C)c2ccc(C(F)(F)F)cc2F)cc(=O)[nH]1` (single isomer, unassigned) [Example 98, (S)- or (R)-6-(6-(2-Fluoro-4-(trifluoromethyl)phenyl)-6-methyl-5,6-dihydro-4H-pyrolo[1,2-c][1,2,3]triazol-3-yl)-2-methylpyrimidin-4(3H)-one], 218 nM.
In the case of `CCC(c1ccc(C(F)(F)F)cc1F)n1cc(-c2cc(=O)[nH]c(C)n2)nn1` (single isomer, unassigned) [Example 38, (S)- or (R)-6-(1-(1-(2-fluoro-4-(trifluoromethyl)phenyl)propyl)-1H-1,2,3-triazol-4-yl)-2-methylpyrimidin-4(3H)-one], the Ki worked out at 10.5 nM.
In the case of `Cc1nc(-n2cnc([C@H](C)c3ccc(C(F)(F)F)cc3F)n2)cc(=O)[nH]1` (single isomer, unassigned) [Example 85], the Ki is 1200 nM.
For the compound `Cc1nc(-c2nnn3c2CCC[C@]3(C)c2ccc(C(F)(F)F)cc2Cl)cc(=O)[nH]1` (single isomer, unassigned) [Example 88], the Ki was above 2960 nM.
Consider `CCc1ccc([C@]2(C)CCCc3c(-c4cc(=O)[nH]c(C)n4)nnn32)c(F)c1` (single isomer, unassigned) [Example 96], for which the Ki was found to be 430 nM.
For `Cc1nc(-c2nnc(C(C)c3ccc(C(F)(F)F)cc3F)[nH]2)cc(=O)[nH]1` (single isomer, unassigned) [Example 62, (S)- or (R)-6-(5-(1-(2-fluoro-4-(trifluoromethyl)-phenyl)ethyl)-4H-1,2,4-triazol-3-yl)-2-methylpyrimidin-4(3H)-one], the inhibitory constant (Ki) came to 387 nM.
For the compound `Cc1nc(-c2cn(C(C)c3ccc(C(F)(F)F)cc3F)nn2)cc(=O)[nH]1` (single isomer, unassigned) [Example 27, (R)- or (S)-6-(1-(1-(2-fluoro-4-(trifluoromethyl)phenyl)ethyl)-1H-1,2,3-triazol-4-yl)-2-methylpyrimidin-4(3H)-one], the Ki worked out at 46.6 nM.
As for `Cc1nc(-c2nnn3c2CCCCC3c2ccc(C(F)(F)F)cc2)cc(=O)[nH]1` (single isomer, unassigned) [Example 51, (R)- or (S)-2-methyl-6-(8-(4-(trifluoromethyl)phenyl)-5,6,7,8-tetrahydro-4H-[1,2,3]triazolo[1,5-a]azepin-3-yl)pyrimidin-4(3H)-one], the Ki is 79.9 nM.
